Experiments:
Format in all cases: cell-based
[1] = test system: recombinant NL4-3 virus (nef section replaced with Renilla luciferase gene) in MT-2 cells; assay: HIV cell culture assay (antiviral activity, luciferase readout); settings: serial dilutions of compound
Procedure, shortened: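 Test compound in serial dilution was present while MT-2 cells were infected for 4–5 days with recombinant NL4-3 virus made in 293T cells. Antiviral activity was quantified as Renilla luciferase activity, read with a live-cell substrate. EC50 came from the median-effect equation.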

[2] = test system: uninfected MT2 cells; assay: Compound cytotoxicity, XTT-based colorimetric assay; settings: day 4, XTT
Procedure, shortened: (§1)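 Run under the antiviral-assay protocol but without virus. Viability was read on day 4 and CC50 values were derived from the readout.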

[3] = as above; settings: human, uninfected MT2 cells, day 4, XTT
Procedure, shortened: as §1

[4] = MT-2 cells infected for 4-5 days with recombinant NL4-3 Renilla luciferase virus
[5] = Renilla, NL43, MT-2 cells infected for 4-5 days with recombinant NL4-3 Renilla luciferase virus

Compound	EC50 [1, 4]	CC50 [2]	EC50 [1, 5]	CC50 at 4 day [3]
O=C(Cn1nc(C(F)F)c2c1C(F)(F)[C@@H]1C[C@H]21)N[C@@H](Cc1cc(F)cc(F)c1)c1nc2cc(-c3ccccc3F)ccc2c(=O)n1-c1ccc(Cl)c2c(NS(=O)(=O)C3CC3)nn(CC(F)F)c12 (atropisomer, axis not shown; (aR)) [Example 8, N-((S)-1-(3-(4-chloro-3-(cyclopropanesulfonamido)-1-(2,2-difluoroethyl)-1H-indazol-7-yl)-7-(2-fluorophenyl)-4-oxo-3,4-dihydroquinazolin-2-yl)-2-(3,5-difluorophenyl)ethyl)-2-((3bS,4aR)-3-(difluoromethyl)-5,5-difluoro-3b,4,4a,5-tetrahydro-1H-cyclopropa[3,4]cyclopenta[1,2-c]pyrazol-1-yl)acetamide]	0.613 nM	> 1000 nM	–	–
O=C(Cn1nc(C(F)F)c2c1C(F)(F)[C@@H]1C[C@H]21)N[C@@H](Cc1cc(F)cc(F)c1)c1nc2cc(-c3ccccc3F)ccc2c(=O)n1-c1ccc(Cl)c2c(NS(=O)(=O)C3CC3)nn(CC(F)F)c12 (atropisomer, axis not shown; (aR)) [Example 115, N-((S)-1-(3-(4-chloro-3-(cyclopropanesulfonamido)-1-(2,2-difluoroethyl)-1H-indazol-7-yl)-7-(2-fluorophenyl)-4-oxo-3,4-dihydroquinazolin-2-yl)-2-(3,5-difluorophenyl)ethyl)-2-((3bS,4aR)-3-(difluoromethyl)-5,5-difluoro-3b,4,4a,5-tetrahydro-1H-cyclopropa[3,4]cyclopenta[1,2-c]pyrazol-1-yl)acetamide]	–	> 10000 nM	0.469 nM	–
Cn1nc(NS(C)(=O)=O)c2c(Cl)ccc(-n3c([C@H](Cc4cc(F)cc(F)c4)NC(=O)Cn4ccc(C5CC5)n4)nc4cc(-c5ccccc5F)ccc4c3=O)c21 (single isomer, unassigned) [Example 4]	1.1 nM	> 1000 nM	–	–
Cn1nc(NS(C)(=O)=O)c2c(Cl)ccc(-n3c([C@H](Cc4cc(F)cc(F)c4)NC(=O)Cn4nc(C(F)F)c5c4C(F)(F)[C@@H]4C[C@H]54)nc4cc(-c5ccccc5F)ccc4c3=O)c21 (single isomer, unassigned) [Example 5]	–	> 1000 nM	62.7 nM	–
Cn1nc(NS(C)(=O)=O)c2c(Cl)ccc(-n3c([C@H](Cc4cc(F)cc(F)c4)NC(=O)Cn4nc(C(F)F)c5c4C(F)(F)[C@@H]4C[C@H]54)nc4cc(-c5ccccc5F)ccc4c3=O)c21 (single isomer, unassigned) [Example 6]	0.3 nM	> 1000 nM	–	–
CC(C(=O)N[C@@H](Cc1cc(F)cc(F)c1)c1nc2cc(-c3ccccc3F)ccc2c(=O)n1-c1ccc(Cl)c2c(NS(=O)(=O)C3CC3)nn(CC(F)F)c12)n1ccc(C2CC2)n1 (single isomer, unassigned) [Example 138]	9 nM	> 500 nM	–	–
O=C(Cn1nc(C(F)F)cc1C(F)F)N[C@@H](Cc1cc(F)cc(F)c1)c1nc2cc(-c3ncccn3)ccc2c(=O)n1-c1ccc(Cl)c2c(NS(=O)(=O)C3CC3)nn(CC(F)F)c12 [Example 189, (S)-2-(3,5-bis(difluoromethyl)-1H-pyrazol-1-yl)-N-(1-(3-(4-chloro-3-(cyclopropanesulfonamido)-1-(2,2-difluoroethyl)-1H-indazol-7-yl)-4-oxo-7-(pyrimidin-2-yl)-3,4-dihydroquinazolin-2-yl)-2-(3,5-difluorophenyl)ethyl)acetamide]	–	–	1.3 nM	> 500 nM
O=C(Cn1nc(C(F)F)cc1C(F)F)N[C@@H](Cc1cc(F)cc(F)c1)c1nc2cc(-c3ccccn3)ccc2c(=O)n1-c1ccc(Cl)c2c(NS(=O)(=O)C3CC3)nn(CC(F)F)c12 [Example 190, (S)-2-(3,5-bis(difluoromethyl)-1H-pyrazol-1-yl)-N-(1-(3-(4-chloro-3-(cyclopropanesulfonamido)-1-(2,2-difluoroethyl)-1H-indazol-7-yl)-4-oxo-7-(pyridin-2-yl)-3,4-dihydroquinazolin-2-yl)-2-(3,5-difluorophenyl)ethyl)acetamide]	–	–	2.1 nM	> 500 nM
Cc1nccnc1-c1ccc2c(=O)n(-c3ccc(Cl)c4c(NS(=O)(=O)C5CC5)nn(CC(F)F)c34)c([C@H](Cc3cc(F)cc(F)c3)NC(=O)Cn3nc(C(F)F)cc3C(F)F)nc2c1 [Example 191, (S)-2-(3,5-bis(difluoromethyl)-1H-pyrazol-1-yl)-N-(1-(3-(4-chloro-3-(cyclopropanesulfonamido)-1-(2,2-difluoroethyl)-1H-indazol-7-yl)-7-(3-methylpyrazin-2-yl)-4-oxo-3,4-dihydroquinazolin-2-yl)-2-(3,5-difluorophenyl)ethyl)acetamide]	–	–	1.5 nM	> 500 nM
Cn1nc(NS(C)(=O)=O)c2c(Cl)ccc(-n3c([C@H](Cc4cc(F)cc(F)c4)NC(=O)Cn4nc(C(F)F)c5c4C(F)(F)[C@@H]4C[C@H]54)nc4cc(-c5ccc(C(C)(C)C)cc5)ccc4c3=O)c21 [Example 192, N-((S)-1-(7-(4-(tert-butyl)phenyl)-3-(4-chloro-1-methyl-3-(methylsulfonamido)-1H-indazol-7-yl)-4-oxo-3,4-dihydroquinazolin-2-yl)-2-(3,5-difluorophenyl)ethyl)-2-((3bS,4aR)-3-(difluoromethyl)-5,5-difluoro-3b,4,4a,5-tetrahydro-1H-cyclopropa[3,4]cyclopenta[1,2-c]pyrazol-1-yl)acetamide]	–	–	5.1 nM	> 1000 nM
Cn1nc(NS(C)(=O)=O)c2c(Cl)ccc(-n3c([C@H](Cc4cc(F)cc(F)c4)NC(=O)Cn4nc(C(F)F)c5c4C(F)(F)[C@@H]4C[C@H]54)nc4cc(-c5ccc(F)cc5)ccc4c3=O)c21 [Example 193, N-((S)-1-(3-(4-chloro-1-methyl-3-(methylsulfonamido)-1H-indazol-7-yl)-7-(4-fluorophenyl)-4-oxo-3,4-dihydroquinazolin-2-yl)-2-(3,5-difluorophenyl)ethyl)-2-((3bS,4aR)-3-(difluoromethyl)-5,5-difluoro-3b,4,4a,5-tetrahydro-1H-cyclopropa[3,4]cyclopenta[1,2-c]pyrazol-1-yl)acetamide]	–	–	0.95 nM	> 1000 nM
Cn1nc(NS(C)(=O)=O)c2c(Cl)ccc(-n3c([C@H](Cc4cc(F)cc(F)c4)NC(=O)Cn4nc(C(F)F)c5c4C(F)(F)[C@@H]4C[C@H]54)nc4cc(-c5ccc(Cl)c(F)c5)ccc4c3=O)c21 [Example 194, N-((S)-1-(3-(4-chloro-1-methyl-3-(methylsulfonamido)-1H-indazol-7-yl)-7-(4-chloro-3-fluorophenyl)-4-oxo-3,4-dihydroquinazolin-2-yl)-2-(3,5-difluorophenyl)ethyl)-2-((3bS,4aR)-3-(difluoromethyl)-5,5-difluoro-3b,4,4a,5-tetrahydro-1H-cyclopropa[3,4]cyclopenta[1,2-c]pyrazol-1-yl)acetamide]	–	–	7.7 nM	> 1000 nM
Cn1nc(NS(C)(=O)=O)c2c(Cl)ccc(-n3c([C@H](Cc4cc(F)cc(F)c4)NC(=O)Cn4nc(C(F)F)c5c4C(F)(F)[C@@H]4C[C@H]54)nc4cc(-c5ccccc5)ccc4c3=O)c21 [Example 195, N-((S)-1-(3-(4-chloro-1-methyl-3-(methylsulfonamido)-1H-indazol-7-yl)-4-oxo-7-phenyl-3,4-dihydroquinazolin-2-yl)-2-(3,5-difluorophenyl)ethyl)-2-((3bS,4aR)-3-(difluoromethyl)-5,5-difluoro-3b,4,4a,5-tetrahydro-1H-cyclopropa[3,4]cyclopenta[1,2-c]pyrazol-1-yl)acetamide]	–	–	0.36 nM	> 1000 nM

Reference: US11505543B2, “4-oxo-3,4-dihydroquinazoline compounds as inhibitors of human immunodeficiency virus replication” (VIIV HEALTHCARE UK (NO.5) LIMITED, priority 2018, dated 2022)
